Key:
[1] = system: spectrum of fungi tested (8 fungal strains); test: Antifungal evaluation, summary over the fungi tested; format: cell-based; settings: fungi tested, less active than the standards; read-out: IC80 antifungal
Experimental: Antifungal evaluation was also accomplished with microdilution broth method. On the contrary, there was used RPMI 1640 broth with glutamine as medium and conditions were humid and dark atmosphere, pH 7.0 (adjusted with 0.165 M morpholinepropanesulfonic acid, MOPS) and 35 °C. 8 fungal strains were used (Candida albicans ATCC 44859, Candida tropicalis 156, Candida krusei E28, Candida glabrata 20/I, Trichosporon asahii 1188, Aspergillus fumigatus 231, Lichtheimia corymbifera 272, Trichophyton mentagrophytes 445) together with four antimycotic standards amphotericin B, voriconazole, nystatin and fluconazole.

[2] = system: Staphylococcus epidermidis; test: Antibacterial in vitro screening, microdilution broth method; format: cell-based; settings: 80% inhibition of control
[3] = system: PET in spinach chloroplasts; test: Photosynthetic electron transport (PET) inhibition, DCPIP photoreduction; format: biochemical, Spinacia oleracea L.; settings: DCPIP photoreduction
Experimental: The inhibition of photosynthetic electron transport (PET) in spinach chloroplasts was determined spectrophotometrically (Genesys 6, Thermo Scientific, Madison, WI, USA) using an artificial electron acceptor 2,6-dichlorophenol-indophenol (DCPIP). The rate of photosynthetic electron transport was monitored as a photoreduction of DCPIP. Chloroplasts were prepared from Spinacia oleracea L.. The measurements were carried out in phosphate buffer (0.02 mol/L, pH 7.2) containing sucrose (0.4 mol/L), MgCl2 (0.005 mol/L) and NaCl (0.015 mol/L). The chlorophyll concentration was 30 mg/L and the samples were irradiated (~100 W/m^2 with 10 cm distance) with a halogen lamp (250 W). […] The studied compound were dissolved in DMSO due to their limited water solubility. […] The efficiency of studied compounds was expressed as 50% inhibition concentration relative to the untreated control. The standard for these measurements was DCMU (Diurone®).

[4] = system: aromatic amino acids of photosynthetic proteins in spinach chloroplasts; test: Fluorescence emission spectra of aromatic amino acids in chloroplast suspension; design: species or system Spinacia oleracea L.; settings: c = 0, 6, 24 and 48 μmol/L; excitation 275 nm; chlorophyll 10 mg/L
Experimental: The emission fluorescence spectra of aromatic amino acids were recorded on the fluorescence spectrophotometer F-2000 (Hitachi, Tokyo, Japan). The samples of chloroplast suspensions with and without studied inhibitor were excited at wavelength of 275 nm, excitation slit 20 nm and emission slit 10 nm. The samples were kept in the dark for 2 min prior to the measurement. The phosphate buffer used for dilution of the chloroplast suspension was the same as described above. The compounds were added to chloroplast suspension in DMSO solution due to low aqueous solubility. The DMSO concentration in all samples was the same as in the control (10%). The chlorophyll concentration in chloroplast suspension was 10 mg/L.

[5] = Lipophilicity HPLC determination (logk); format: physicochemical; settings: HPLC capacity factor, C18, MeOH 70%/H2O 30%, 30 °C

**Q.** Which IC80 [1] does the source give for CCCCCCNc1nccnc1C(N)=O [Compound 7, 3-(Hexylamino)pyrazine-2-carboxamide] here?
**A.** ≥ 250 µM

**Q.** What about the IC80 [2] of the same compound?
**A.** < 250 µM

**Q.** And the IC50 [3]?
**A.** 32.9 µM

**Q.** What about the “Quenching of aromatic amino acid fluorescence at 334 nm” value [4] of the same compound?
**A.** increased with increasing concentration

**Q.** What about the logk [5] of the same compound?
**A.** 0.6860
